Experiments:
OVCAR8 = test: drug sensitivity score (DSS2) on cancer cell count; higher = more sensitive; extreme values may be limits of the assay; details: 72 h
Procedure, shortened: (§1)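 Ovarian cancer cells were cultured either alone or directly mixed 1:1 with lung or skin fibroblasts and plated onto 384-well plates acoustically pre-spotted with 528 approved and investigational compounds at 5 concentrations for 72 h of treatment. After fixation, cells were immunostained for CK8/18 with Hoechst and imaged at 10× across 4 fields to count cancer cells. Responses were fitted with 4-parameter logistic curves, and from these fits a drug sensitivity score was derived in Breeze, with screen quality assessed by Z'.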

KURAMOCHI = test: as above; details: 72 h
Procedure, shortened: as §1

[1] = co-cultured fibroblast: BJHTERT
[2] = co-cultured fibroblast: none (monoculture)

SMILES | drug sensitivity score (OVCAR8; [1]) [DSS] | drug sensitivity score (OVCAR8; co-cultured fibroblast: WI38) [DSS] | drug sensitivity score (OVCAR8; [2]) [DSS] | drug sensitivity score (KURAMOCHI; [1]) [DSS] | drug sensitivity score (KURAMOCHI; co-cultured fibroblast: WI38) [DSS] | drug sensitivity score (KURAMOCHI; [2]) [DSS]
CCOc1cc2ncc(C#N)c(Nc3ccc(OCc4ccccn4)c(Cl)c3)c2cc1NC(=O)/C=C/CN(C)C [Neratinib] | 7 | 3 | 6 | 9 | 3.6 | 1.4
Cc1cc(Nc2cc(CN3CCOCC3)c3nc(C)c(Cc4ccc(Cl)cc4F)n3n2)n[nH]1 [Gandotinib] | 9 | 12.1 | 9.7 | 7.6 | 3.7 | 4
Cc1ccc(NC(=O)c2ccc(CN3CCN(C)CC3)cc2)cc1Nc1nc(-c2cccnc2)cs1 [Masitinib] | 3.9 | 0.2 | 0.2 | 2 | 1.6 | 0
OC[C@H]1O[C@@H](n2cnc3c2N=CNC[C@H]3O)C[C@@H]1O [Pentostatin] | 0 | 2.8 | 0 | 0 | 0 | 0
CC(C)c1cc(-c2n[nH]c(=O)n2-c2ccc3c(ccn3C)c2)c(O)cc1O [Ganetespib] | 22.3 | 22.9 | 27.1 | 14.8 | 17.1 | 21
COc1cccc(OCCCN)c1-c1cc(Nc2cnc(C#N)cn2)n[nH]1 [Prexasertib] | 35 | 33.7 | 29.8 | 25.7 | 23.7 | 30.7
CC[C@H](Nc1ncnc2[nH]cnc12)c1nc2cccc(F)c2c(=O)n1-c1ccccc1 [Idelalisib] | 2.9 | 0 | 0.3 | 10.9 | 5.5 | 3.9
COCCOc1cnc2ccn([C@H](C)c3nnc4c(F)cc(-c5cnn(C)c5)cn34)c(=O)c2c1 [AMG-337] | 0 | 0 | 0 | 0 | 0 | 0
Cn1cncc1[C@@](N)(c1ccc(Cl)cc1)c1ccc2c(c1)c(-c1cccc(Cl)c1)cc(=O)n2C [Tipifarnib] | 5.5 | 2.5 | 12.5 | 14.9 | 18.3 | 12.9
COc1cc2ncnc(Nc3ccc(F)c(Cl)c3)c2cc1NC(=O)/C=C/CN1CCCCC1 [Dacomitinib] | 5.5 | 0 | 3.2 | 7 | 3.7 | 8.3
COCC[n+]1c2c(n(Cc3cnccn3)c1C)C(=O)c1ccccc1C2=O [Sepantronium bromide] | 37.1 | 35.5 | 29.9 | 40.7 | 30 | 30.5
CN[C@@H](C)C(=O)N[C@H]1CN(C(=O)CC(C)C)CC[C@H]2CC[C@@H](C(=O)NC(c3ccccc3)c3ccccc3)N2C1=O [AT-406] | 10 | 9.9 | 9.7 | 0 | 0 | 0
Cn1cc(C[C@@H](N)C(=O)O)c2ccccc21 [1-methyl-D-tryptophan] | 0 | 0 | 0 | 0 | 0 | 10.3
COc1cc(N2CCC(N3CCN(C)CC3)CC2)ccc1Nc1ncnc(Nc2ccccc2S(=O)(=O)C(C)C)n1 [ASP3026] | 8.6 | 3.1 | 4.7 | 7.7 | 2 | 5.7
C/C=C1\NC(=O)[C@H]2CSSCC/C=C/[C@H](CC(=O)N[C@H](C(C)C)C(=O)N2)OC(=O)[C@H](C(C)C)NC1=O [Romidepsin] | 29.2 | 26.5 | 30.4 | 28 | 30 | 32.7
Nc1ccccc1NC(=O)c1ccc(CNC(=O)OCc2cccnc2)cc1 [Entinostat] | 8.5 | 11.7 | 11.1 | 6 | 14.3 | 9.2
Cc1ccc(NC(=O)c2ccc(CN3CC[C@H](N(C)C)C3)c(C(F)(F)F)c2)cc1Nc1nccc(-c2cncnc2)n1 [Bafetinib] | 0 | 0 | 0 | 0.1 | 0 | 0
CS(=O)(=O)c1ccc(C(=O)Nc2ccc(Cl)c(-c3ccccn3)c2)c(Cl)c1 [Vismodegib] | 0 | 6.8 | 0 | 0 | 0 | 0
C=CCN(/C=C1/C(=O)O[C@H](COC)[C@@]2(C)C1=C(O)C(=O)C1=C2[C@H](OC(C)=O)C[C@]2(C)C(=O)CC[C@@H]12)CC=C [Sonolisib] | 0 | 0 | 0 | 0 | 1.5 | 0
CC(C)c1c(C(=O)Nc2ccccc2)c(-c2ccccc2)c(-c2ccc(F)cc2)n1CC[C@@H](O)C[C@@H](O)CC(=O)O [Atorvastatin] | 4 | 11.7 | 6 | 3.1 | 2.1 | 1.9
COc1cccc(-c2ccc(NC(=O)C3=C(C(=O)O)CCC3)c(F)c2)c1 [Vidofludimus] | 0 | 1.6 | 2 | 1.5 | 0.4 | 1.9
